Data from PubChem BioAssay AID256 (DTP/NCI, 2004).
“And” between values parts separate entries of the source, which are not always exact repeats. Equal values may be shown once. Inconclusive results and toxic doses are left out.

System: CD2F1 mice, L1210 leukemia ip, survival T/C
Assay: NCI In Vivo Anticancer Drug Screen. Data for tumor model L1210 Leukemia (intraperitoneal) in CD2F1 (CDF1) mice
Settings: higher = longer survival
How it was run: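 Implant tumor; dose compound or vehicle; measure endpoint in both groups; report treated divided by control.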

C1OC1CN1CCN(CC2CO2)CC1 (centres undefined)
T/C (endpoint: mean survival time, dose: 2.0 mg/kg/injection, schedule: Q03HX008 (ip), vehicle: saline): 105 % of control | T/C (endpoint: mean survival time, dose: 2.0 mg/kg/injection, schedule: Q03HX016 (ip), vehicle: saline): 98 % of control | T/C (endpoint: mean survival time, dose: 2.0 mg/kg/injection, schedule: Q03HX024 (ip), vehicle: saline): 108 % of control | T/C (endpoint: mean survival time, dose: 4.0 mg/kg/injection, schedule: Q03HX008 (ip), vehicle: saline): 108 % of control | T/C (endpoint: mean survival time, dose: 4.0 mg/kg/injection, schedule: Q03HX016 (ip), vehicle: saline): 100 % of control | T/C (endpoint: mean survival time, dose: 4.0 mg/kg/injection, schedule: Q03HX024 (ip), vehicle: saline): 121 % of control | T/C (endpoint: mean survival time, dose: 8.0 mg/kg/injection, schedule: Q01DX009 (ip), vehicle: saline): 121 % of control | T/C (endpoint: mean survival time, dose: 8.0 mg/kg/injection, schedule: Q01DX009 (sc), vehicle: saline): 108 % of control | T/C (endpoint: mean survival time, dose: 16.0 mg/kg/injection, schedule: Q01DX001 (ip), vehicle: saline): 113 % of control | T/C (endpoint: mean survival time, dose: 16.0 mg/kg/injection, schedule: Q01DX001 (sc), vehicle: saline): 105 % of control | T/C (endpoint: mean survival time, dose: 16.0 mg/kg/injection, schedule: Q04DX003 (ip), vehicle: saline): 120 % of control | T/C (endpoint: mean survival time, dose: 16.0 mg/kg/injection, schedule: Q08DX002 (ip), vehicle: saline): 103 % of control | T/C (endpoint: mean survival time, dose: 32.0 mg/kg/injection, schedule: Q01DX001 (sc), vehicle: saline): 108 % of control | T/C (endpoint: mean survival time, dose: 32.0 mg/kg/injection, schedule: Q01DX009 (ip), vehicle: saline): 194 % of control | T/C (endpoint: mean survival time, dose: 32.0 mg/kg/injection, schedule: Q08DX002 (ip), vehicle: saline): 120 % of control | T/C (endpoint: mean survival time, dose: 64.0 mg/kg/injection, schedule: Q01DX001 (ip), vehicle: saline): 152 % of control | T/C (endpoint: mean survival time, dose: 64.0 mg/kg/injection, schedule: Q01DX001 (sc), vehicle: saline): 122 % of control | T/C (endpoint: mean survival time, dose: 64.0 mg/kg/injection, schedule: Q01DX009 (ip), vehicle: saline): 92 % of control | T/C (endpoint: mean survival time, dose: 64.0 mg/kg/injection, schedule: Q01DX009 (sc), vehicle: saline): 88 % of control | T/C (endpoint: mean survival time, dose: 64.0 mg/kg/injection, schedule: Q04DX003 (ip), vehicle: saline): 175 % of control | T/C (endpoint: mean survival time, dose: 64.0 mg/kg/injection, schedule: Q08DX002 (ip), vehicle: saline): 156 % of control | T/C (endpoint: mean survival time, dose: 128.0 mg/kg/injection, schedule: Q01DX001 (ip), vehicle: saline): 201 % of control | T/C (endpoint: mean survival time, dose: 128.0 mg/kg/injection, schedule: Q04DX003 (ip), vehicle: saline): 88 % of control | T/C (endpoint: mean survival time, dose: 128.0 mg/kg/injection, schedule: Q08DX002 (ip), vehicle: saline): 190 % of control

CCOC(=O)C1C(=O)N(c2ccccc2)C(=O)N1c1ccccc1 (centres undefined)
T/C (endpoint: mean survival time, dose: 12.5 mg/kg/injection, schedule: Q01DX009 (ip), vehicle: other): 89 % of control | T/C (endpoint: mean survival time, dose: 25.0 mg/kg/injection, schedule: Q01DX009 (ip), vehicle: other): 89 % of control | T/C (endpoint: mean survival time, dose: 50.0 mg/kg/injection, schedule: Q01DX009 (ip), vehicle: other): 103 % of control | T/C (endpoint: mean survival time, dose: 100.0 mg/kg/injection, schedule: Q01DX009 (ip), vehicle: other): 93 % of control | T/C (endpoint: mean survival time, dose: 200.0 mg/kg/injection, schedule: Q01DX009 (ip), vehicle: other): 98 % of control

Nc1ncnc2nc(C(O)C(O)C(O)CO)[nH]c12 (centres undefined)
T/C (endpoint: median survival time, dose: 12.5 mg/kg/injection, schedule: Q01DX005 (ip), vehicle: distilled water + Tween-80): 102 % of control | T/C (endpoint: median survival time, dose: 25.0 mg/kg/injection, schedule: Q01DX005 (ip), vehicle: distilled water + Tween-80): 96 % of control | T/C (endpoint: median survival time, dose: 50.0 mg/kg/injection, schedule: Q01DX005 (ip), vehicle: distilled water + Tween-80): 98 % of control | T/C (endpoint: median survival time, dose: 100.0 mg/kg/injection, schedule: Q01DX005 (ip), vehicle: distilled water + Tween-80): 98 % of control | T/C (endpoint: median survival time, dose: 200.0 mg/kg/injection, schedule: Q01DX005 (ip), vehicle: distilled water + Tween-80): 106 % of control

Nc1ccc(OCCCc2ccccc2)c([N+](=O)[O-])c1
T/C (endpoint: mean survival time, dose: 100.0 mg/kg/injection, schedule: Q01DX001 (ip), vehicle: other): 92 % of control and 100 % of control | T/C (endpoint: mean survival time, dose: 100.0 mg/kg/injection, schedule: Q01DX009 (ip), vehicle: saline with Tween-80): 96 % of control and 102 % of control | T/C (endpoint: mean survival time, dose: 100.0 mg/kg/injection, schedule: Q04DX002 (ip), vehicle: other): 98 % of control | T/C (endpoint: mean survival time, dose: 100.0 mg/kg/injection, schedule: Q04DX003 (ip), vehicle: other): 98 % of control | T/C (endpoint: mean survival time, dose: 200.0 mg/kg/injection, schedule: Q01DX001 (ip), vehicle: other): 93 % of control and 98 % of control | T/C (endpoint: mean survival time, dose: 200.0 mg/kg/injection, schedule: Q01DX009 (ip), vehicle: saline with Tween-80): 96 % of control and 106 % of control | T/C (endpoint: mean survival time, dose: 200.0 mg/kg/injection, schedule: Q04DX002 (ip), vehicle: other): 100 % of control | T/C (endpoint: mean survival time, dose: 200.0 mg/kg/injection, schedule: Q04DX003 (ip), vehicle: other): 100 % of control | T/C (endpoint: mean survival time, dose: 400.0 mg/kg/injection, schedule: Q01DX009 (ip), vehicle: saline with Tween-80): 122 % of control and 93 % of control | T/C (endpoint: mean survival time, dose: 400.0 mg/kg/injection, schedule: Q04DX002 (ip), vehicle: other): 102 % of control
